Results: ChEMBL document CHEMBL4138149, “Discovery of 1-(3-aryl-4-chlorophenyl)-3-(p-aryl)urea derivatives against breast cancer by inhibiting PI3K/Akt/mTOR and Hedgehog signalings” (Eur J Med Chem, 2017)
Values belong to the molecule of their own block, whether it stands above or below them. Calls of active or inactive are those of the source. No cut-off for these calls is given here.

Experiments:
T47D [1] = test: Cytotoxicity against human T47D cells after 72 hrs by MTT assay; format: functional, cell-based
[2] = molecular target: Serine/threonine-protein kinase mTOR (Homo sapiens, UniProt P42345); test: Inhibition of mTOR (unknown origin) using Ulight-4EBP1 peptide as substrate measured after 1 hr by Lance Ultra assay
[3] = molecular target: Phosphatidylinositol 4,5-bisphosphate 3-kinase catalytic subunit alpha isoform (Homo sapiens) (UniProt P42336); test: Inhibition of PI3Kalpha (unknown origin) at 5 uM using PIP2 as substrate measured after 1 hr by Kinase-Glo luminescent assay relative to control
MDA-MB-231 [4] = test: cells; conditions: Homo sapiens, MDA-MB-231, 72 h
Description: Cytotoxicity against human MDA-MB-231 cells after 72 hrs by MTT assay

PC-3 = test: Cytotoxicity against human PC3 cells after 72 hrs by MTT assay; format: functional, cell-based; conditions: PC-3, 72 h
MCF7 = test: Cytotoxicity against human MCF7 cells after 72 hrs by MTT assay; format: functional, cell-based; conditions: MCF7, 72 h
T47D [5] = test: Induction of apoptosis in human T47D cells assessed as necrotic cells at 10 uM after 48 hrs by Annexin-V-FITC/propidium iodide staining based flow cytometric method (reference value: 0.135%); format: functional
MDA-MB-231 [6] = test: Inhibition of PI3K/Akt/mTOR signaling in human MDA-MB-231 cells assessed as reduction in phosphorylation of S6K at Thr412 residue at 5 uM measured within 4 hrs by Western blot analysis; format: cell-based
T47D [7] = test: Induction of apoptosis in human T47D cells assessed as necrotic cells at 5 uM after 48 hrs by Annexin-V-FITC/propidium iodide staining based flow cytometric method (reference value: 0.135%); format: functional
T47D [8] = test: Induction of apoptosis in human T47D cells assessed as early apoptotic cells at 5 uM after 48 hrs by Annexin-V-FITC/propidium iodide staining based flow cytometric method (reference value: 4.49%); format: functional
MDA-MB-231 [9] = test: Induction of apoptosis in human MDA-MB-231 cells assessed as early apoptotic cells at 5 uM after 48 hrs by Annexin-V-FITC/propidium iodide staining based flow cytometric method (reference value: 0.634%); format: functional
T47D [10] = test: Induction of apoptosis in human T47D cells assessed as early apoptotic cells at 10 uM after 48 hrs by Annexin-V-FITC/propidium iodide staining based flow cytometric method (reference value: 4.49%); format: functional
MDA-MB-231 [11] = test: Induction of apoptosis in human MDA-MB-231 cells assessed as necrotic cells at 10 uM after 48 hrs by Annexin-V-FITC/propidium iodide staining based flow cytometric method (reference value: 0.086%); format: functional
T47D [12] = test: Induction of apoptosis in human T47D cells assessed as late apoptotic cells at 5 uM after 48 hrs by Annexin-V-FITC/propidium iodide staining based flow cytometric method (reference value: 9.18%); format: functional
MDA-MB-231 [13] = test: Inhibition of PI3K/Akt/mTOR signaling in human MDA-MB-231 cells assessed as reduction in AKT phosphorylation at Ser473 residue at 5 uM by Western blot analysis; format: cell-based; conditions: TDE = time-dependent effect
MDA-MB-231 [14] = test: Induction of apoptosis in human MDA-MB-231 cells assessed as live cells at 5 uM after 48 hrs by Annexin-V-FITC/propidium iodide staining based flow cytometric method (reference value: 94.3%); format: functional
MDA-MB-231 [15] = test: Inhibition of Hedgehog signaling in human MDA-MB-231 cells assessed as reduction in SAG-induced elevation of Gli1 expression at 5 to 10 uM after 48 hrs by Western blot analysis; format: cell-based
T47D [16] = test: Induction of apoptosis in human T47D cells assessed as live cells at 10 uM after 48 hrs by Annexin-V-FITC/propidium iodide staining based flow cytometric method (reference value: 86.2%); format: functional
MDA-MB-231 [17] = test: Induction of apoptosis in human MDA-MB-231 cells assessed as late apoptotic cells at 10 uM after 48 hrs by Annexin-V-FITC/propidium iodide staining based flow cytometric method (reference value: 5%); format: functional
MDA-MB-231 [18] = test: Induction of apoptosis in human MDA-MB-231 cells assessed as late apoptotic cells at 5 uM after 48 hrs by Annexin-V-FITC/propidium iodide staining based flow cytometric method (reference value: 5%); format: functional
MDA-MB-231 [19] = test: Induction of apoptosis in human MDA-MB-231 cells assessed as necrotic cells at 5 uM after 48 hrs by Annexin-V-FITC/propidium iodide staining based flow cytometric method (reference value: 0.086%); format: functional
T47D [20] = test: Induction of apoptosis in human T47D cells assessed as late apoptotic cells at 10 uM after 48 hrs by Annexin-V-FITC/propidium iodide staining based flow cytometric method (reference value: 9.18%); format: functional
MDA-MB-231 [21] = test: Induction of apoptosis in human MDA-MB-231 cells assessed as early apoptotic cells at 10 uM after 48 hrs by Annexin-V-FITC/propidium iodide staining based flow cytometric method (reference value: 0.634%); format: functional
MDA-MB-231 [22] = test: Antimigratory activity against human MDA-MB-231 cells at 5 to 10 uM after 24 hrs by tryphan blue staining based transwell assay; format: functional, cell-based
T47D [23] = test: Induction of apoptosis in human T47D cells assessed as live cells at 5 uM after 48 hrs by Annexin-V-FITC/propidium iodide staining based flow cytometric method (reference value: 86.2%); format: functional
MDA-MB-231 [24] = test: Induction of apoptosis in human MDA-MB-231 cells assessed as live cells at 10 uM after 48 hrs by Annexin-V-FITC/propidium iodide staining based flow cytometric method (reference value: 94.3%); format: functional
MDA-MB-231 [25] = test: Inhibition of PI3K/Akt/mTOR signaling in human MDA-MB-231 cells assessed as reduction in phosphorylation of S6K at Thr389 residue at 5 uM measured within 4 hrs by Western blot analysis; format: cell-based
[26] = molecular target: Phosphatidylinositol 4,5-bisphosphate 3-kinase catalytic subunit alpha isoform (Homo sapiens) (UniProt P42336); test: Inhibition of PI3Kalpha (unknown origin) at 50 uM using PIP2 as substrate measured after 1 hr by Kinase-Glo luminescent assay relative to control

Phosphatidylinositol 4,5-bisphosphate 3-kinase catalytic subunit alpha isoform (Homo sapiens), sequence (P42336 whole entry, canonical isoform): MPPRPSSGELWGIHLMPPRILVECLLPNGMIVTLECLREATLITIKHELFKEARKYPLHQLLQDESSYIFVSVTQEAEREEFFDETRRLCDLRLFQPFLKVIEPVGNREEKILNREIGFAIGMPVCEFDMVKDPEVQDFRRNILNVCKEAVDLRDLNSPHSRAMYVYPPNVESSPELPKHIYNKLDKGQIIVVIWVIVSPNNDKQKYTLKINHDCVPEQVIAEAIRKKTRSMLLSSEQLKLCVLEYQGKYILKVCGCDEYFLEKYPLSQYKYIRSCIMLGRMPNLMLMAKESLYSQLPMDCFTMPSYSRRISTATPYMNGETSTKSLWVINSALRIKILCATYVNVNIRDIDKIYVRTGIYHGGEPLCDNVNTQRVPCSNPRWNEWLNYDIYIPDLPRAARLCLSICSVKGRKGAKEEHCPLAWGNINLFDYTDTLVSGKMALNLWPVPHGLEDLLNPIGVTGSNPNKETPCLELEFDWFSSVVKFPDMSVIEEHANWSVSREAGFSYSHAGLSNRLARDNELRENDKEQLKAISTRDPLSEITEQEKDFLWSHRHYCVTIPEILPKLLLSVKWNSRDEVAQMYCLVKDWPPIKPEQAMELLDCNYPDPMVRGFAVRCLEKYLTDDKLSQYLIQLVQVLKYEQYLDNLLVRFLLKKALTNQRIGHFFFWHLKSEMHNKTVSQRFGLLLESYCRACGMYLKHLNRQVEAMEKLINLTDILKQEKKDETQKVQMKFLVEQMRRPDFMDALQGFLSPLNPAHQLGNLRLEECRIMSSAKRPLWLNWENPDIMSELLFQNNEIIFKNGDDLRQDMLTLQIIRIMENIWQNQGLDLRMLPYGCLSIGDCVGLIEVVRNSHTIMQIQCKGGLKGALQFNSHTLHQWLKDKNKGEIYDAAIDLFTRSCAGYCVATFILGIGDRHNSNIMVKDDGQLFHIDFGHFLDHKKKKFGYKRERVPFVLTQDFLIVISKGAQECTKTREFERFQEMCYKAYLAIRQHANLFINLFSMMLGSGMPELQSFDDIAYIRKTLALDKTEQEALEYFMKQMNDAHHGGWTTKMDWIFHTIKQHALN

SMILES: O=C(Nc1ccc(-c2cc(N3CCOCC3)nc(N3CCOCC3)n2)cc1)Nc1ccc(Cl)c(-c2ccsc2)c1
IC50 (T47D [1]): 18.7 µM

IC50 [2]: 3.45 µM
inhibition [3]: 57.1%
SMILES: O=C(Nc1ccc(-c2nc(N3CCOCC3)nc(N3CCOCC3)n2)cc1)Nc1ccc(Cl)c(-c2ccccc2)c1
IC50 (T47D [1]): 15.4 µM

IC50 (MDA-MB-231 [4]): 8.49 µM
IC50 [2]: 0.33 µM
inhibition [3]: 35.1%
SMILES: O=C(Nc1ccc(-c2cc(N3CCOCC3)nc(N3CCOCC3)n2)cc1)Nc1ccc(Cl)c(-c2cccnc2)c1
IC50 (PC-3): 15.5 µM
IC50 (MCF7): 9.15 µM
IC50 (T47D [1]): 3.96 µM

SMILES: O=C(Nc1ccc(-c2ccnc(N3CCOCC3)n2)cc1)Nc1ccc(Cl)c(-c2ccsc2)c1
IC50 (T47D [1]): 22.6 µM

IC50 (MDA-MB-231 [4]): > 50 µM
SMILES: CS(=O)(=O)c1ccc(C(=O)Nc2ccc(Cl)c(-c3ccccn3)c2)c(Cl)c1 [VISMODEGIB]
IC50 (PC-3): > 50 µM
IC50 (MCF7): > 50 µM
IC50 (T47D [1]): 41.3 µM

IC50 (MDA-MB-231 [4]): 18.9 µM
SMILES: O=C(Nc1ccc(-c2ccnc(N3CCOCC3)n2)cc1)Nc1ccc(Cl)c(-c2ccncc2)c1
IC50 (PC-3): 17.7 µM
IC50 (MCF7): 19.2 µM
IC50 (T47D [1]): 16 µM

IC50 (MDA-MB-231 [4]): 7.32 µM
IC50 [2]: 0.26 µM
inhibition [3]: 9.37%
SMILES: O=C(Nc1ccc(-c2cc(N3CCOCC3)nc(N3CCOCC3)n2)cc1)Nc1ccc(Cl)c(-c2ccncc2)c1
IC50 (PC-3): 9.28 µM
IC50 (MCF7): 8.2 µM
IC50 (T47D [1]): 7.41 µM

IC50 (MDA-MB-231 [4]): 3.61 µM
IC50 [2]: 0.18 µM
inhibition [3]: 16.3%
SMILES: O=C(Nc1ccc(-c2nc(N3CCOCC3)nc(N3CCOCC3)n2)cc1)Nc1ccc(Cl)c(-c2ccncc2)c1
Activity (T47D [5]): 0.347%
inhibition (MDA-MB-231 [6]): Active
Activity (T47D [7]): 0.132%
Activity (T47D [8]): 8.49%
Activity (MDA-MB-231 [9]): 18.7%
Activity (T47D [10]): 75.1%
IC50 (PC-3): 11 µM
Activity (MDA-MB-231 [11]): 0.595%
Activity (T47D [12]): 10.5%
inhibition (MDA-MB-231 [13]): Tde
Activity (MDA-MB-231 [14]): 51.6%
inhibition (MDA-MB-231 [15]): Active
IC50 (MCF7): 7.61 µM
Activity (T47D [16]): 13.9%
Activity (MDA-MB-231 [17]): 49.9%
Activity (MDA-MB-231 [18]): 28.6%
Activity (MDA-MB-231 [19]): 1.17%
Activity (T47D [20]): 10.6%
Activity (MDA-MB-231 [21]): 42.5%
Activity (MDA-MB-231 [22]): Active
IC50 (T47D [1]): 7.94 µM
Activity (T47D [23]): 80.8%
Activity (MDA-MB-231 [24]): 7.01%
inhibition (MDA-MB-231 [25]): Active

IC50 (MDA-MB-231 [4]): 7.82 µM
IC50 [2]: 0.2 µM
inhibition [3]: 26.6%
SMILES: O=C(Nc1ccc(-c2nc(N3CCOCC3)nc(N3CCOCC3)n2)cc1)Nc1ccc(Cl)c(-c2cccnc2)c1
IC50 (PC-3): 5.37 µM
IC50 (MCF7): 5.75 µM
IC50 (T47D [1]): 9.38 µM

SMILES: O=C(Nc1ccc(-c2ccnc(N3CCOCC3)n2)cc1)Nc1ccc(Cl)c(-c2cccs2)c1
IC50 (T47D [1]): 24.3 µM

SMILES: CS(=O)(=O)c1ccc(C(=O)Nc2ccc(-c3cc(N4CCOCC4)nc(N4CCOCC4)n3)cc2)c(Cl)c1
IC50 (T47D [1]): 22.3 µM

inhibition [26]: 30%
IC50 (MDA-MB-231 [4]): 14.5 µM
IC50 [2]: > 10 µM
SMILES: O=C(Nc1ccc(-c2ccnc(N3CCOCC3)n2)cc1)Nc1ccc(Cl)c(-c2cccnc2)c1
IC50 (PC-3): 11.8 µM
IC50 (MCF7): 16.8 µM
IC50 (T47D [1]): 4.11 µM

SMILES: O=C(Nc1ccc(-c2nc(N3CCOCC3)nc(N3CCOCC3)n2)cc1)Nc1ccc(Cl)c(-c2cccs2)c1
IC50 (T47D [1]): 44.1 µM

IC50 [2]: 0.09 µM
inhibition [3]: 6.8%
SMILES: O=C(Nc1ccc(-c2nc(N3CCOCC3)nc(N3CCOCC3)n2)cc1)Nc1ccc(Cl)c(-c2ccccn2)c1
IC50 (T47D [1]): 14.2 µM

SMILES: CS(=O)(=O)c1ccc(C(=O)Nc2ccc(-c3nc(N4CCOCC4)nc(N4CCOCC4)n3)cc2)c(Cl)c1
IC50 (T47D [1]): 17.5 µM

SMILES: CS(=O)(=O)c1ccc(C(=O)Nc2ccc(-c3ccnc(N4CCOCC4)n3)cc2)c(Cl)c1
IC50 (T47D [1]): 25 µM

SMILES: O=C(Nc1ccc(-c2cc(N3CCOCC3)nc(N3CCOCC3)n2)cc1)Nc1ccc(Cl)c(-c2ccccn2)c1
IC50 (T47D [1]): 35.1 µM

SMILES: O=C(Nc1ccc(-c2nc(N3CCOCC3)nc(N3CCOCC3)n2)cc1)Nc1ccc(Cl)c(-c2ccsc2)c1
IC50 (T47D [1]): 23.2 µM

IC50 (MDA-MB-231 [4]): 1.88 µM
SMILES: Nc1cc(C(F)(F)F)c(-c2cc(N3CCOCC3)nc(N3CCOCC3)n2)cn1 [BUPARLISIB]
IC50 (PC-3): 5.34 µM
IC50 (MCF7): 11.1 µM
IC50 (T47D [1]): 6.92 µM

SMILES: O=C(Nc1ccc(-c2ccnc(N3CCOCC3)n2)cc1)Nc1ccc(Cl)c(-c2ccccc2)c1
IC50 (T47D [1]): 44.6 µM

SMILES: O=C(Nc1ccc(-c2cc(N3CCOCC3)nc(N3CCOCC3)n2)cc1)Nc1ccc(Cl)c(-c2cccs2)c1
IC50 (T47D [1]): 25.4 µM

SMILES: O=C(Nc1ccc(-c2ccnc(N3CCOCC3)n2)cc1)Nc1ccc(Cl)c(-c2ccccn2)c1
IC50 (T47D [1]): 23.1 µM

SMILES: O=C(Nc1ccc(-c2cc(N3CCOCC3)nc(N3CCOCC3)n2)cc1)Nc1ccc(Cl)c(-c2ccccc2)c1
IC50 (T47D [1]): 15.6 µM
